According to PubChem BioAssay AID330 (DTP/NCI, 2004):
“And” between values parts separate entries of the source, which are not always exact repeats. Equal entries are not always repeated. Inconclusive results and toxic doses are left out. The calls were made as follows: active = survival T/C of 150% or more; inactive = T/C below 125% in these data.

System: P388 leukemia ip, CD2F1 mice, survival T/C
Assay: NCI In Vivo Anticancer Drug Screen. Data for tumor model P388 Leukemia (intraperitoneal) in CD2F1 (CDF1) mice
Conditions: endpoint: median survival time, higher = longer survival
How it was run: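 Mice carrying the transplanted tumor received test compound or vehicle. Survival was recorded in each group, and the value is the treated-group measurement divided by that of the vehicle-treated control group.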

[1] = dose: 100.0 mg/kg/injection, schedule: Q01DX001 (ip), vehicle: saline with Tween-80
[2] = dose: 100.0 mg/kg/injection, schedule: Q04DX002 (ip), vehicle: saline with Tween-80
[3] = dose: 200.0 mg/kg/injection, schedule: Q01DX001 (ip), vehicle: saline with Tween-80
[4] = dose: 200.0 mg/kg/injection, schedule: Q04DX002 (ip), vehicle: saline with Tween-80
[5] = dose: 400.0 mg/kg/injection, schedule: Q01DX001 (ip), vehicle: saline with Tween-80
[6] = dose: 400.0 mg/kg/injection, schedule: Q04DX002 (ip), vehicle: saline with Tween-80
[7] = dose: 60.0 mg/kg/injection, schedule: Q01DX005 (ip), vehicle: Klucel (hydroxypropylcellulose) (HPC)
[8] = dose: 120.0 mg/kg/injection, schedule: Q01DX005 (ip), vehicle: Klucel (hydroxypropylcellulose) (HPC)
[9] = dose: 240.0 mg/kg/injection, schedule: Q01DX005 (ip), vehicle: Klucel (hydroxypropylcellulose) (HPC)
[10] = dose: 6.25 mg/kg/injection, schedule: Q01DX005 (ip), vehicle: Klucel (hydroxypropylcellulose) (HPC)
[11] = dose: 12.5 mg/kg/injection, schedule: Q01DX005 (ip), vehicle: Klucel (hydroxypropylcellulose) (HPC)
[12] = dose: 25.0 mg/kg/injection, schedule: Q01DX005 (ip), vehicle: Klucel (hydroxypropylcellulose) (HPC)
[13] = dose: 50.0 mg/kg/injection, schedule: Q01DX005 (ip), vehicle: Klucel (hydroxypropylcellulose) (HPC)
[14] = dose: 100.0 mg/kg/injection, schedule: Q01DX005 (ip), vehicle: Klucel (hydroxypropylcellulose) (HPC)
[15] = dose: 12.5 mg/kg/injection, schedule: Q01DX009 (ip), vehicle: saline with Tween-80
[16] = dose: 25.0 mg/kg/injection, schedule: Q01DX009 (ip), vehicle: saline with Tween-80
[17] = dose: 200.0 mg/kg/injection, schedule: Q01DX005 (ip), vehicle: Klucel (hydroxypropylcellulose) (HPC)
[18] = dose: 50.0 mg/kg/injection, schedule: Q01DX009 (ip), vehicle: Klucel (hydroxypropylcellulose) (HPC)
[19] = dose: 100.0 mg/kg/injection, schedule: Q01DX009 (ip), vehicle: Klucel (hydroxypropylcellulose) (HPC)
[20] = dose: 200.0 mg/kg/injection, schedule: Q01DX009 (ip), vehicle: Klucel (hydroxypropylcellulose) (HPC)
[21] = dose: 60.0 mg/kg/injection, schedule: Q01DX005 (ip), vehicle: saline with Tween-80
[22] = dose: 120.0 mg/kg/injection, schedule: Q01DX005 (ip), vehicle: saline with Tween-80
[23] = dose: 240.0 mg/kg/injection, schedule: Q01DX005 (ip), vehicle: saline with Tween-80
[24] = dose: 100.0 mg/kg/injection, schedule: Q01DX009 (ip), vehicle: saline with Tween-80

Measured: T/C

N#CC1CC(c2ccc([N+](=O)[O-])cc2)N(c2ccccc2)O1 (configuration not stated)
inactive: [1] 95 % of control | [2] 100 % of control and 104 % of control | [3] 94 % of control | [4] 95 % of control and 88 % of control | [5] 92 % of control | [6] 98 % of control and 90 % of control

COc1cc(-c2ccc(O)cc2)c(OC)c(O)c1-c1ccc(O)cc1
inactive: dose: 0.15 mg/kg/injection, schedule: Q01DX009 (ip), vehicle: saline 90 % of control | dose: 0.3 mg/kg/injection, schedule: Q01DX009 (ip), vehicle: saline 90 % of control | dose: 0.6 mg/kg/injection, schedule: Q01DX009 (ip), vehicle: saline 107 % of control | dose: 1.2 mg/kg/injection, schedule: Q01DX009 (ip), vehicle: saline 89 % of control

COC1(OC)C(c2ccc([N+](=O)[O-])cc2)C([N+](=O)[O-])C1(OC)OC (configuration not stated)
inactive: [7] 90 % of control | [8] 93 % of control | [9] 89 % of control

Cc1ccc(-n2c(C)nc3[nH]cc(C)c3c2=N)cc1
inactive: [10] 101 % of control | [11] 99 % of control | [12] 99 % of control

Cn1c2ccccc2c2nnc(N/N=C/c3ccncc3)nc21
inactive: [2] 88 % of control | [4] 88 % of control | [6] 99 % of control and 100 % of control

CN(C)CCCC#N
inactive: dose: 25.0 mg/kg/injection, schedule: Q04DX003 (ip), vehicle: saline 100 % of control | dose: 50.0 mg/kg/injection, schedule: Q04DX003 (ip), vehicle: saline 100 % of control | dose: 100.0 mg/kg/injection, schedule: Q04DX003 (ip), vehicle: saline 100 % of control

CC(C)(C)OC(=O)NCCCCC(NC(=O)OCC1c2ccccc2-c2ccccc21)C(=O)O (configuration not stated)
inactive: [13] 109 % of control | [14] 93 % of control

CSC(=S)NN=C1CCCC1
inactive: [15] 101 % of control | [16] 101 % of control

O=c1c2cocc2c(O)c2n1Cc1cc3ccccc3nc1-2
inactive: dose: 50.0 mg/kg/injection, schedule: Q01DX001 (ip), vehicle: saline with Tween-80 100 % of control and 101 % of control | [1] 99 % of control and 110 % of control and 120 % of control | [3] 99 % of control and 110 % of control and 120 % of control | [5] 100 % of control and 102 % of control and 112 % of control

Cc1ccc(/C=N/O)cc1
inactive: [12] 97 % of control | [13] 98 % of control | [14] 99 % of control | [17] 98 % of control

O=C(c1cccs1)C1SC(C(=O)c2cccs2)C2(O)c3cccc4cccc(c34)C12O (configuration not stated)
inactive: dose: 7.5 mg/kg/injection, schedule: Q01DX009 (ip), vehicle: Klucel (hydroxypropylcellulose) (HPC) 100 % of control

Cc1ccc(NC(=S)SCc2ccc3c(c2)OCO3)cc1Br
inactive: dose: 12.5 mg/kg/injection, schedule: Q01DX009 (ip), vehicle: Klucel (hydroxypropylcellulose) (HPC) 122 % of control | dose: 25.0 mg/kg/injection, schedule: Q01DX009 (ip), vehicle: Klucel (hydroxypropylcellulose) (HPC) 102 % of control | [18] 120 % of control | dose: 50.0 mg/kg/injection, schedule: Q01DX009 (ip), vehicle: suspension in saline 104 % of control | [19] 115 % of control | dose: 100.0 mg/kg/injection, schedule: Q01DX009 (ip), vehicle: suspension in saline 111 % of control | [20] 116 % of control | dose: 200.0 mg/kg/injection, schedule: Q01DX009 (ip), vehicle: suspension in saline 104 % of control

CC1=NN(c2ccccc2)C(=O)/C1=C\c1ccc([N+](=O)[O-])cc1
inactive: [21] 104 % of control | [22] 101 % of control | [23] 103 % of control

COc1cc(NC(=O)CNC(=O)CNC(=O)C(N)CC(C)C)cc2ccccc12 (configuration not stated)
inactive: [13] 100 % of control | [14] 96 % of control | [17] 100 % of control

CCOC(=O)c1c(C(=O)OCC)c(C)n(/N=N/n2c(C)c(C(=O)OCC)c(C(=O)OCC)c2C)c1C
inactive: [13] 103 % of control | [14] 87 % of control

CC1(C)CC(=O)C(C(c2cccc(O)c2O)C2C(=O)CC(C)(C)CC2=O)C(=O)C1
inactive: [15] 100 % of control and 96 % of control | [16] 92 % of control | dose: 50.0 mg/kg/injection, schedule: Q01DX009 (ip), vehicle: saline with Tween-80 93 % of control and 96 % of control | [24] 92 % of control and 94 % of control

OC1OCC(COc2ccc(Cl)cc2)OC1O (configuration not stated)
inactive: [21] 108 % of control and 118 % of control | [22] 111 % of control | [23] 123 % of control

CC12OC(c3ccccc3)C(C)(OC1c1ccccc1)O2 (configuration not stated)
inactive: [7] 102 % of control | [8] 100 % of control | [9] 98 % of control

O=[N+]([O-])c1ccccc1CSc1ncnc2nc[nH]c12
inactive: dose: 50.0 mg/kg/injection, schedule: Q04DX003 (ip), vehicle: saline with Tween-80 95 % of control | [24] 90 % of control | dose: 100.0 mg/kg/injection, schedule: Q04DX003 (ip), vehicle: saline with Tween-80 109 % of control | dose: 200.0 mg/kg/injection, schedule: Q01DX009 (ip), vehicle: saline with Tween-80 100 % of control | dose: 200.0 mg/kg/injection, schedule: Q04DX003 (ip), vehicle: saline with Tween-80 104 % of control | dose: 400.0 mg/kg/injection, schedule: Q01DX009 (ip), vehicle: saline with Tween-80 118 % of control

O=C(NC1(OC(=O)c2ccc(Cl)cc2)CC1)c1ccc(Cl)cc1
inactive: [7] 103 % of control | [8] 104 % of control | [9] 89 % of control

COc1ccc(Br)cc1/C=C/[N+](=O)[O-]
inactive: [15] 113 % of control | [16] 122 % of control

CNCC(=O)Nc1ccc(C2NC(=O)Cc3ccccc32)cc1 (configuration not stated)
inactive: dose: 100.0 mg/kg/injection, schedule: Q04DX002 (ip), vehicle: saline 104 % of control | dose: 200.0 mg/kg/injection, schedule: Q04DX002 (ip), vehicle: saline 111 % of control

CCOc1ccc(/C=N/NC(=O)C(=O)N/N=C/c2ccc(OCC)c(OCC)c2)cc1OCC
inactive: [10] 102 % of control and 95 % of control and 96 % of control | [18] 90 % of control | [20] 92 % of control

CP(=O)(c1ccccc1)c1ccccc1OCCCOCCCOc1ccccc1P(C)(=O)c1ccccc1 (configuration not stated)
inactive: [13] 99 % of control | [14] 99 % of control | [17] 94 % of control

COC(=O)/C=C(/C(=O)OC)N(O)C(=O)CN1C(=O)c2ccccc2C1=O
inactive: [21] 102 % of control | [22] 100 % of control | [23] 101 % of control

CNC(=O)OCc1c(COC(=O)NC)c(-c2ccsc2)n2c1CCC2
inactive: dose: 15.0 mg/kg/injection, schedule: Q01DX005 (ip), vehicle: saline with Tween-80 118 % of control | [21] 119 % of control and 124 % of control

CS(=O)(=O)OCC1OCC(OS(C)(=O)=O)C1O (configuration not stated)
inactive: dose: 50.0 mg/kg/injection, schedule: Q01DX001 (ip), vehicle: Klucel (hydroxypropylcellulose) (HPC) 101 % of control | dose: 100.0 mg/kg/injection, schedule: Q01DX001 (ip), vehicle: Klucel (hydroxypropylcellulose) (HPC) 102 % of control | dose: 200.0 mg/kg/injection, schedule: Q01DX001 (ip), vehicle: Klucel (hydroxypropylcellulose) (HPC) 101 % of control

NCCc1cc2ccccc2c2ccccc12
inactive: [11] 99 % of control | [12] 99 % of control | [13] 99 % of control and 95 % of control

Cn1c(=O)n(-c2ccccc2)c(=O)c2ccccc21
inactive: [19] 100 % of control | [20] 110 % of control | dose: 400.0 mg/kg/injection, schedule: Q01DX009 (ip), vehicle: Klucel (hydroxypropylcellulose) (HPC) 109 % of control

COc1ccc2c(c1)OCCCO/N=C(\c1ccccc1)c1ccc(OC)cc1OCCCO/N=C/2c1ccccc1 (tested in a mixture with another compound)
inactive: dose: 50.0 mg/kg/injection, schedule: Q01DX005 (ip), vehicle: saline with Tween-80 103 % of control | dose: 100.0 mg/kg/injection, schedule: Q01DX005 (ip), vehicle: saline with Tween-80 103 % of control | dose: 200.0 mg/kg/injection, schedule: Q01DX005 (ip), vehicle: saline with Tween-80 98 % of control
